Experimental data reported in patent US20240067693A1, “POLYPEPTIDES AND USES THEREOF” (MEDIMMUNE LIMITED, priority 2020, published 2024).
Numbered stars: 1 amine (or outer) side, 2 acyl side, 3 side chain; on linkers, the order of the positions; unused ones are H or OH. Bridge positions count the residues as written; N and C are the ends. Peptide text beside a SMILES is read from it. * marks the point of attachment. C20 diacid = O=C(O)CCCCCCCCCCCCCCCCCCC(=O)*; γGlu = O=C(O)[C@H](CCC(=O)[*:2])N[*:1]

Assays:
[1] = molecular target: T1, human amylin receptor (calcitonin receptor co-expressed with receptor activity modifying protein, RAMP3) (hAMYR3) (Homo sapiens, UniProt O60896+P30988); assay: cAMP production in 1321N1 cells with stable recombinant expression of human amylin receptor (hAMYR3); assay type: cell-based
T1 construct: expressed in transfected cells
T1 sequence (P30988 25-474): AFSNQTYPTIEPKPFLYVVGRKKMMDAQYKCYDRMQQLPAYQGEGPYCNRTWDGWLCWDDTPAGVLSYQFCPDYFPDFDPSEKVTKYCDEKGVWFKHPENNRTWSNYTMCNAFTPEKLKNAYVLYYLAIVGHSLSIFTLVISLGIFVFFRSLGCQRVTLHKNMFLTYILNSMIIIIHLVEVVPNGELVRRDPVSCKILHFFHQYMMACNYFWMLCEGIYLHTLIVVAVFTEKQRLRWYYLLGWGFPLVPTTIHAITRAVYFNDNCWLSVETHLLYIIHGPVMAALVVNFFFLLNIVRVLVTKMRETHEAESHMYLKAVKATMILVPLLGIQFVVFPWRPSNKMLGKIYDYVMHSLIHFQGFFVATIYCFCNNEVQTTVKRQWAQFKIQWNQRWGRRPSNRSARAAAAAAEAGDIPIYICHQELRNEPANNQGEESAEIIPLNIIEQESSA
T1 sequence (O60896 24-148 partner): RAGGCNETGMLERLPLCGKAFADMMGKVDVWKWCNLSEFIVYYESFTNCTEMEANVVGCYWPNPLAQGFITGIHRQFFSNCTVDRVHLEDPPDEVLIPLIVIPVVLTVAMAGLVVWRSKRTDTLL
In short: (§1)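 Thawed cells in HBSS/0.1% BSA/25 mM HEPES pH 7.4 with 0.5 mM IBMX were incubated with peptides 30 min at room temperature; cAMP read by HTRF. EC50 from 4-parameter fit of % activation relative to maximal amylin or calcitonin effect.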

[2] = Thioflavin T fibrillation assay; assay type: physicochemical
In short: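 Peptides at 1 mg/mL in 25 mM sodium acetate pH 4.0 with ThT (from 0.25 mM stock), incubated 6 days at 37 °C with intermittent orbital shaking at 500–750 rpm. Fluorescence (ex 444/em 480 nm) read every 30 min; value is average time to a rise in baseline-corrected signal.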

[3] = molecular target: T2, human calcitonin receptor (hCTR) (Homo sapiens, UniProt P30988); assay: cAMP production in 1321N1 cells with stable recombinant expression of human calcitonin receptor (hCTR); assay type: cell-based; conditions: cAMP, 1321N1 cells, assay buffer with 0.1% BSA; read-out: EC50 (pM) hCTR
T2 construct: expressed in transfected cells
T2 sequence (P30988 25-474): T1 sequence (P30988 25-474)
In short: as §1

lean rats = assay: Rat acute food intake study; assay type: in vivo; conditions: lean male Sprague Dawley rats, 20 nmol/kg subcutaneously
In short: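 Male Sprague Dawley rats (n=7/group), fasted 6 h, received 20 nmol/kg test compound or 60 nmol/kg pramlintide subcutaneously 30 min before food return at dark onset. Food intake recorded automatically in home cages over 3 days, binned hourly and analysed as cumulative dark-period intake; body weight taken daily.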

SMILES: CC[C@H](C)[C@H](NC(=O)[C@@H]1CCCN1C(=O)CNC(=O)[C@H](Cc1ccccc1)NC(=O)[C@H](CC(N)=O)NC(=O)[C@H](CC(N)=O)NC(=O)[C@H](CO)NC(=O)[C@H](CO)NC(=O)[C@H](Cc1c[nH]cn1)NC(=O)[C@@H](NC(=O)[C@H](CC(C)C)NC(=O)[C@H](Cc1ccccc1)NC(=O)[C@H](CC(N)=O)NC(=O)[C@H](C)NC(=O)[C@H](CC(C)C)NC(=O)[C@H](CCCNC(=N)N)NC(=O)[C@H](CCC(N)=O)NC(=O)[C@@H](NC(=O)[C@H](C)NC(=O)[C@@H]1CSSC[C@H](NC(=O)[C@H](CCCCN)NC(=O)CC[C@H](NC(=O)CCCCCCCCCCCCCCCCCCC(=O)O)C(=O)O)C(=O)N[C@@H](CC(N)=O)C(=O)N[C@@H]([C@@H](C)O)C(=O)N[C@@H](C)C(=O)N[C@@H]([C@@H](C)O)C(=O)N1)[C@@H](C)O)C(C)C)C(=O)N[C@@H](CC(C)C)C(=O)N1CCC[C@H]1C(=O)N1CCC[C@H]1C(=O)N[C@H](C(=O)N[C@@H](CC(N)=O)C(=O)N[C@H](C(=O)NCC(=O)N[C@@H](CO)C(=O)N[C@@H](CC(N)=O)C(=O)N[C@H](C(=O)N[C@@H](Cc1ccc(O)cc1)C(N)=O)[C@@H](C)O)C(C)C)[C@@H](C)O [Peptide 112] ({C20 diacid-γGlu}-KCNTATCATQRLANFLVHSSNNFGPILPPTNVGSNTY-NH2; disulfide 2-7)
- Ratio (selectivity hAMYR vs hCTR, ratio of EC50 values at the two receptors) ([1]; EC50 hCTR / EC50 hAMYR3): 2
- EC50 ([1]; cAMP, 1321N1 cells, assay buffer with 0.1% BSA, read-out: EC50 (pM) hAMYR3): 861 pM
- fibril-forming tendency ([2]; ThT assay, 1 mg/mL, pH 4.0, 37 °C, compared to pramlintide): increases the fibril-forming tendency
- Time taken to detect increase in fluorescence intensity ([2]; ThT fibrillation assay, peptide 1 mg/mL in 25 mM sodium acetate buffer pH 4.0, 6 days at 37 °C with shaking, >144 h = no increase): <5 h
- EC50 [3]: 1340 pM
- Cummulative food intake (% vehicle treated intake) At 12 h (lean rats; at 12 h): 15.8 % vehicle treated intake
- Cummulative food intake (% vehicle treated intake) At 24 h (lean rats; at 24 h): 15.9 % vehicle treated intake
- Cummulative food intake (% vehicle treated intake) At 48 h (lean rats; at 48 h): 22.1 % vehicle treated intake
